ChEMBL document CHEMBL1144199, “Design, synthesis, and biological evaluation of new mitonafide derivatives as potential antitumor drugs” (Bioorg Med Chem, 2008)
pIC50: −log10 of the molar value.

Tests used:
[1] = tested on: HT-29; assay: Cytotoxicity against human HT-29 cells after 144 hrs; assay type: functional, cell-based; settings: HT-29, 144 h
[2] = tested on: DNA; assay: Displacement of ethidium bromide from calf thymus DNA assessed as ratio of concentration of ethidium in ethidium DNA complex to drug concentration by fluorometric assay; assay type: nucleic-acid assay; settings: Bos taurus

Compound | pIC50 [1] | Kapp [2]
CN(C)CCNC(=O)c1cccc2c(=O)c3ccccc3[nH]c12 | 5.77 | 
CN(C)CCCNc1ccc2c3c(cccc13)C(=O)N(CCCN(C)C)C2=O | 5.85 | 1.3 ×10⁷ /M
CN(C)CCNc1c(N)cc2c3c(cccc13)C(=O)N(CCN(C)C)C2=O | 6.09 | 4.5 ×10⁷ /M
CCN(CC)CCCNc1ccc2c3c(cccc13)C(=O)N(CCN(C)C)C2=O | 6.05 | 1.9 ×10⁷ /M
CN(C)CCCNc1c([N+](=O)[O-])cc2c3c(cccc13)C(=O)N(CCCN(C)C)C2=O | 6.85 | 7 ×10⁷ /M
CN(C)CCN1C(=O)c2cccc3cc([N+](=O)[O-])cc(c23)C1=O [MITONAFIDE] | 6.66 | 3.4 ×10⁶ /M
CN(C)CCNc1c([N+](=O)[O-])cc2c3c(cccc13)C(=O)N(CCN(C)C)C2=O | 6.92 | 7.7 ×10⁷ /M
CCN(CC)CCNc1ccc2c3c(cccc13)C(=O)N(CCN(C)C)C2=O | 5.68 | 2.3 ×10⁷ /M
CN(C)CCCN1C(=O)c2cccc3c(NCCN(C)C)ccc(c23)C1=O | 5.77 | 1.5 ×10⁷ /M
CN(C)CCN1C(=O)c2cccc3c(NCCNCCO)ccc(c23)C1=O | 6.11 | 2.4 ×10⁷ /M
CN(C)CCNC(=O)c1ccc(NCCN(C)C)c2c(=O)c3ccccc3[nH]c12 | 7.36 | 
NCCNc1c([N+](=O)[O-])cc2c3c(cccc13)C(=O)N(CCN)C2=O | 6.07 | 5.3 ×10⁷ /M
CN(C)CCCNc1c(N)cc2c3c(cccc13)C(=O)N(CCCN(C)C)C2=O | 4.77 | 3.9 ×10⁷ /M
CN(C)CCCNc1ccc2c3c(cccc13)C(=O)N(CCN(C)C)C2=O | 6.03 | 1.9 ×10⁷ /M
CN(C)CCCNc1ccc2c3c(cccc13)C(=O)N(CCCN(C)CCCN1C(=O)c3cccc4c(NCCCN(C)C)ccc(c34)C1=O)C2=O | 7.00 | 1.1 ×10⁸ /M
CN(C)CCNc1ccc2c3c(cccc13)C(=O)N(CCN(C)C)C2=O | 6.80 | 2.3 ×10⁷ /M
CN(C)CCNc1ccc2c3c(cccc13)C(=O)N(CCCN(C)CCCN1C(=O)c3cccc4c(NCCN(C)C)ccc(c34)C1=O)C2=O | 7.22 | 2.3 ×10⁸ /M
